Results as given in US9062048B2, “Cyclohexyl-azetidinyl antagonists of CCR2” (Janssen Pharmaceutica NV, priority 2010, dated 2015).

What follows are compounds tested against CCR2 (Homo sapiens (Human), UniProt P41597) (assay: MCP-1 Receptor Binding Assay in THP-1 Cells). Details: 0.5 nM 125I labeled MCP-1, 2 hours at 30° C., read-out: Inhibition of MCP-1 Binding IC50 MCP1B.
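Note: THP-1 is a human monocytic cell line, and nonspecific binding was defined with 1 µM unlabeled MCP-1.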

Sequence of CCR2 (P41597 whole entry): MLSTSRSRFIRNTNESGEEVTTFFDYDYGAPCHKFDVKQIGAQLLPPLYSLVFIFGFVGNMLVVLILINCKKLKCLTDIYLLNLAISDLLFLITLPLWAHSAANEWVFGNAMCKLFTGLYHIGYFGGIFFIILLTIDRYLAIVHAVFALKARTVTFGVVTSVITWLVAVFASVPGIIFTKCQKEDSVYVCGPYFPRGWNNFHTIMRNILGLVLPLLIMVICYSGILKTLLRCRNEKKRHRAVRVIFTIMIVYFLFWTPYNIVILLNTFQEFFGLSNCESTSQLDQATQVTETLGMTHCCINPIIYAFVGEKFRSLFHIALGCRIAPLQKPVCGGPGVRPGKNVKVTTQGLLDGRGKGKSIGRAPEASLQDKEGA

Row | SMILES | IC50 [nM]
1 | CC(C)[C@@H](O)[C@H]1CC[C@H](N2CC(NC(=O)CNc3cnnc4ccc(C(F)(F)F)cc34)C2)CC1 (racemic) [Example 158, N-(1-((1R,4r)-4-((R)-1-hydroxy-2-methylpropyl)cyclohexyl)azetidin-3-yl)-2-((6-(trifluoromethyl)cinnolin-4-yl)amino)acetamide] | 2560
2 | CC(C)[C@@H](O)[C@H]1CC[C@@H](N2CC(NC(=O)CNc3nncc4ccc(C(F)(F)F)cc34)C2)CC1 (racemic) [Example 159, N-(1-((1R,4s)-4-((S)-1-hydroxy-2-methylpropyl)cyclohexyl)azetidin-3-yl)-2-((7-(trifluoromethyl)phthalazin-1-yl)amino)acetamide] | 8290
3 | CC(C)[C@H](O)[C@H]1CC[C@H](N2CC(NC(=O)CNc3nncc4ccc(C(F)(F)F)cc34)C2)CC1 (racemic) [Example 160, N-(1-((1S,4r)-4-((S)-1-hydroxy-2-methylpropyl)cyclohexyl)azetidin-3-yl)-2-((7-(trifluoromethyl)phthalazin-1-yl)amino)acetamide] | 22
4 | O=C(CNc1ncnc2ccc(C(F)(F)F)cc12)NC1CN(C2CCC([C@@H](O)C3CC3)CC2)C1 (single isomer, unassigned; (+)) [(+) 6] | 25
5 | CC(C)[C@H](O)C1CCC(N2CC(NC(=O)CNc3ncnc4ccc(C(F)(F)F)cc34)C2)CC1 (single isomer, unassigned; (+)) [(+) 8] | 44
6 | CC[C@@H](O)[C@H]1CC[C@@H](N2CC(NC(=O)CNc3nccc4ncc(C(F)(F)F)cc34)C2)CC1 (stereo in doubt) [Example 150, N-(1-((1R,4s)-4-((S)-1-hydroxypropyl)cyclohexyl)azetidin-3-yl)-2-((3-(trifluoromethyl)-1,6-naphthyridin-5-yl)amino)acetamide] | 430
7 | CC[C@@H](O)[C@H]1CC[C@@H](N2CC(NC(=O)CNc3nncc4ccc(C(F)(F)F)cc34)C2)CC1 (stereo in doubt) [Example 153, N-(1-((1R,4s)-4-((S)-1-hydroxypropyl)cyclohexyl)azetidin-3-yl)-2-((7-(trifluoromethyl)phthalazin-1-yl)amino)acetamide] | 15
8 | CC(C)[C@@H](O)[C@H]1CC[C@@H](N2CC(NC(=O)CNc3nccc4ncc(C(F)(F)F)cc34)C2)CC1 (stereo in doubt) [Example 155, N-(1-((1R,4s)-4-((S)-1-hydroxy-2-methylpropyl)cyclohexyl)azetidin-3-yl)-2-((3-(trifluoromethyl)-1,6-naphthyridin-5-yl)amino)acetamide] | > 25000
9 | O=C(CNc1ncnc2ccc(C(F)(F)F)cc12)NC1CN([C@H]2CC[C@@H]([C@@H](O)C3CC3)CC2)C1 [(+) 4, N-(1-((1S,4s)-4-(cyclopropyl(hydroxy)methyl)cyclohexyl)azetidin-3-yl)-2-((6-(trifluoromethyl)quinazolin-4-yl)amino)acetamide] | 24
10 | O=C(CNc1ncnc2ccc(C(F)(F)F)cc12)NC1CN([C@H]2CC[C@@H](C(O)C3CC3)CC2)C1 (stereo partly drawn) [Example 3, N-(1-((1S,4s)-4-(cyclopropyl(hydroxy)methyl)cyclohexyl)azetidin-3-yl)-2-((6-(trifluoromethyl)quinazolin-4-yl)amino)acetamide] | 22
11 | [2H][C@]1(N2CC(NC(=O)CNc3ncnc4ccc(C(F)(F)F)cc34)C2)CC[C@@H](C(O)C2CC2)CC1 (stereo partly drawn) [Example 5, N-(1-((1S,4s)-4-(cyclopropyl(hydroxy)methyl)1-deuterocyclohexyl)azetidin-3-yl)-2-((6-(trifluoromethyl)quinazolin-4-yl)amino)acetamide] | 14
12 | O=C1C=CCC([C@H]2CC[C@@H](N3CC(NC(=O)CNc4ncnc5ccc(C(F)(F)F)cc45)C3)CC2)N1 (stereo partly drawn) [Example 11, N-(1-((1S,4s)-4-(6-oxo-1,2,3,6-tetrahydropyridin-2-yl)cyclohexyl)azetidin-3-yl)-2-((6-(trifluoromethyl)quinazolin-4-yl)amino)acetamide] | 12
13 | O=C(CNc1ncnc2ccc(C(F)(F)F)cc12)NC1CN([C@H]2CC[C@@H](C3CCCCO3)CC2)C1 (stereo partly drawn) [Example 14, N-(1-((1S,4s)-4-(tetrahydro-2H-pyran-2-yl)cyclohexyl)azetidin-3-yl)-2-((6-(trifluoromethyl)quinazolin-4-yl)amino)acetamide] | 15
14 | O=C(CNc1ncnc2ccc(C(F)(F)F)cc12)NC1CN([C@H]2CC[C@@H](C3CCCO3)CC2)C1 (stereo partly drawn) [Example 15] | 49
15 | O=C(CNc1ncnc2ccc(C(F)(F)F)cc12)NC1CN([C@H]2CC[C@@H](C3COC(=O)N3)CC2)C1 (stereo partly drawn) [Example 16, N-(1-((1R,4s)-4-(2-oxooxazolidin-4-yl)cyclohexyl)azetidin-3-yl)-2-((6-(trifluoromethyl)quinazolin-4-yl)amino)acetamide] | 35
16 | O=C(CNc1ncnc2ccc(C(F)(F)F)cc12)NC1CN([C@H]2CC[C@@H](C3CCOC(=O)N3)CC2)C1 (stereo partly drawn) [Example 17, N-(1-((1R,4s)-4-(2-oxo-1,3-oxazinan-4-yl)cyclohexyl)azetidin-3-yl)-2-((6-(trifluoromethyl)quinazolin-4-yl)amino)acetamide] | 58
17 | CSCC(O)[C@H]1CC[C@@H](N2CC(NC(=O)CNc3ncnc4ccc(C(F)(F)F)cc34)C2)CC1 (stereo partly drawn) [Example 18, N-(1-((1S,4s)-4-(1-hydroxy-2-(methylthio)ethyl)cyclohexyl)azetidin-3-yl)-2-((6-(trifluoromethyl)quinazolin-4-yl)amino)acetamide] | 10
18 | [N-]=[N+]=NCC(O)[C@H]1CC[C@@H](N2CC(NC(=O)CNc3ncnc4ccc(C(F)(F)F)cc34)C2)CC1 (stereo partly drawn) [Example 19, N-(1-((1S,4s)-4-(2-azido-1-hydroxyethyl)cyclohexyl)azetidin-3-yl)-2-((6-(trifluoromethyl)quinazolin-4-yl)amino)acetamide] | 16
19 | COCC(O)[C@H]1CC[C@@H](N2CC(NC(=O)CNc3ncnc4ccc(C(F)(F)F)cc34)C2)CC1 (stereo partly drawn) [Example 20, N-(1-((1S,4s)-4-(1-hydroxy-2-methoxyethyl)cyclohexyl)azetidin-3-yl)-2-((6-(trifluoromethyl)quinazolin-4-yl)amino)acetamide] | 58
20 | O=C(CNc1ncnc2ccc(C(F)(F)F)cc12)NC1CN([C@H]2CC[C@@H](C3CNC(=O)O3)CC2)C1 (stereo partly drawn) [Example 22, N-(1-((1S,4s)-4-(2-oxooxazolidin-5-yl)cyclohexyl)azetidin-3-yl)-2-((6-(trifluoromethyl)quinazolin-4-yl)amino)acetamide] | 64
21 | CN(C)CC(O)[C@H]1CC[C@@H](N2CC(NC(=O)CNc3ncnc4ccc(C(F)(F)F)cc34)C2)CC1 (stereo partly drawn) [Example 23, N-(1-((1S,4s)-4-(2-(dimethylamino)-1-hydroxyethyl)cyclohexyl)azetidin-3-yl)-2-((6-(trifluoromethyl)quinazolin-4-yl)amino)acetamide] | 714

Further compounds by falling IC50, results first:

Row | IC50 [nM] | SMILES
22 | 10 | CC(C)[C@H](O)C1CCC(N2CC(NC(=O)CNc3ncnc4ccc(C(F)(F)F)cc34)C2)CC1 (single isomer, unassigned; (-)) [(−) 8]
23 | 10 | O=C(CNc1ncnc2ccc(C(F)(F)F)cc12)NC1CN([C@H]2CC[C@@H](C3CCCC(=O)N3)CC2)C1 (stereo partly drawn) [Example 13, N-(1-((1S,4s)-4-(6-oxopiperidin-2-yl)cyclohexyl)azetidin-3-yl)-2-((6-(trifluoromethyl)quinazolin-4-yl)amino)acetamide]
24 | 9 | CC(C)C(O)[C@H]1CC[C@@H](N2CC(NC(=O)CNc3ncnc4ccc(C(F)(F)F)cc34)C2)CC1 (stereo partly drawn) [Example 7, N-(1-((1S,4s)-4-(1-hydroxy-2-methylpropyl)cyclohexyl)azetidin-3-yl)-2-((6-(trifluoromethyl)quinazolin-4-yl)amino)acetamide]
25 | 9 | C=C[C@H]1CC[C@@H](N2CC(NC(=O)CNc3ncnc4ccc(C(F)(F)F)cc34)C2)CC1 [Example 9, 2-((6-(trifluoromethyl)quinazolin-4-yl)amino)-N-(1-((1s,4s)-4-vinylcyclohexyl)azetidin-3-yl)acetamide and 2-((6-(trifluoromethyl)quinazolin-4-yl)amino)-N-(1-((1r,4r)-4-vinylcyclohexyl)azetidin-3-yl)acetamide]
26 | 9 | O=C(CNc1ncnc2ccc(C(F)(F)F)cc12)NC1CN([C@H]2CC[C@@H](C3C=CCO3)CC2)C1 (stereo partly drawn) [Example 10, N-(1-((1R,4s)-4-(2,5-dihydrofuran-2-yl)cyclohexyl)azetidin-3-yl)-2-((6-(trifluoromethyl)quinazolin-4-yl)amino)acetamide and N-(1-((1R,4r)-4-(2,5-dihydrofuran-2-yl)cyclohexyl)azetidin-3-yl)-2-((6-(trifluoromethyl)quinazolin-4-yl)amino)acetamide]
27 | 8 | O=C(CNc1ncnc2ccc(C(F)(F)F)cc12)NC1CN(C2CCC([C@@H](O)C3CC3)CC2)C1 (single isomer, unassigned; (-)) [(−) 6]
28 | 8 | O=C(CNc1ncnc2ccc(C(F)(F)F)cc12)NC1CN([C@H]2CC[C@@H]([C@@H](O)C3CC3)CC2)C1 [(−) 4, N-(1-((1S,4s)-4-(cyclopropyl(hydroxy)methyl)cyclohexyl)azetidin-3-yl)-2-((6-(trifluoromethyl)quinazolin-4-yl)amino)acetamide]
29 | 5 | O=C(CNc1ncnc2ccc(C(F)(F)F)cc12)NC1CN([C@H]2CC[C@@H](C3CC=CCO3)CC2)C1 (stereo partly drawn) [Example 2, N-(1-((1S,4s)-4-(−3,6-dihydro-2H-pyran-2-yl)cyclohexyl)azetidin-3-yl)-2-((6-(trifluoromethyl)quinazolin-4-yl)amino)acetamide and N-(1-((1S,4r)-4-(3,6-dihydro-2H-pyran-2-yl)cyclohexyl)azetidin-3-yl)-2((6-(trifluoromethyl)quinazolin-4-yl)amino)acetamide]
30 | 4 | O=C(CNc1ncnc2ccc(C(F)(F)F)cc12)NC1CN(C2CCC(c3ncccc3O)CC2)C1 (stereo not drawn) [Example 1, N-(1-(4-(3-hydroxypyridin-2-yl)cyclohexyl)azetidin-3-yl)-2-((6-(trifluoromethyl)quinazolin-4-yl)amino)acetamide]
